In ChEMBL document CHEMBL2046386, “Potent and selective aminopyrimidine-based B-Raf inhibitors with favorable physicochemical and pharmacokinetic properties” (J Med Chem, 2012):
In brackets after ≈: the same amount, converted by molar mass.

Assays:
[1] = molecular target: T1, Serine/threonine-protein kinase B-raf (Homo sapiens, UniProt P15056, V600E); assay: Inhibition of His6X-tagged human B-raf V600E mutant expressed in baculovirus infected insect cells coexpressing […] using [gamma33P]ATP after 60 mins by scintillation counting
T1 sequence (P15056 2-766 V600E limits assumed): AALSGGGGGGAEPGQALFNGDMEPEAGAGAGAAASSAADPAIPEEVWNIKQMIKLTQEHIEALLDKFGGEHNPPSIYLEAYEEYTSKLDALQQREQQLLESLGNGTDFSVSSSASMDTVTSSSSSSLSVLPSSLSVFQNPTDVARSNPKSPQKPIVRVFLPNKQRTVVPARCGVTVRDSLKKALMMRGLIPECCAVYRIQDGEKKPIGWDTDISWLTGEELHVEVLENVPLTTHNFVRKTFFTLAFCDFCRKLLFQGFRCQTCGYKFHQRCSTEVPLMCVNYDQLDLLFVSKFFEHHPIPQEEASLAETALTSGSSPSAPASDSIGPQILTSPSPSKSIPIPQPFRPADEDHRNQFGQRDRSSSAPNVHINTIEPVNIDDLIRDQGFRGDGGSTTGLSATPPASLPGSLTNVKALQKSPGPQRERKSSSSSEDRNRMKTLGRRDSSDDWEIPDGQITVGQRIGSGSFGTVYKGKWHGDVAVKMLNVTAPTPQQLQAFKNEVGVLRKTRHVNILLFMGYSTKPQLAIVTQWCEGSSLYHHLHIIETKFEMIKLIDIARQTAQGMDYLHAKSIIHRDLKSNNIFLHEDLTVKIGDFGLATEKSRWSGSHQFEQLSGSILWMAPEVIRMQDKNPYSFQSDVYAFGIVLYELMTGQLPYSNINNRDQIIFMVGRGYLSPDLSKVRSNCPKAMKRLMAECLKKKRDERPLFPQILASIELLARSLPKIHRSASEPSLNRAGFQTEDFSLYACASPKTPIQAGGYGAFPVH

[2] = Thermodynamic solubility of the compound at 0.5 mg/ml after 24 hrs by shake flask method at pH 1.2; format: physicochemical; details: buffer, read-out: Therm_solubility
[3] = molecular target: T1, Serine/threonine-protein kinase B-raf; assay: Inhibition of B-raf V600E mutant-mediated Erk phosphorylation in human MALM-3M cells by fluorometric analysis; format: cell-based
Mus musculus = assay: Toxicity in NCr nude mouse xenografted with human COLO205 cells expressing B-raf V600E mutant assessed as adverse effects; format: organism-based, COLO 205; details: in vivo
[4] = AUC in mouse at 30 mg/kg, po dosed in 0.5% methylcellulose/0.2% Tween 80/99.3% water; format: ADME, organism-based; set-up: dose 30 mg/kg, route oral; details: in vivo
[5] = Thermodynamic solubility of the compound at 0.5 mg/ml after 24 hrs by shake flask method at pH 6.5; format: physicochemical; details: buffer, read-out: Therm_solubility
[6] = Plasma protein binding in mouse; format: ADME, cell-free; details: read-out: PPB (converted)
[7] = Oral bioavailability in mouse at 30 mg/kg; format: ADME, organism-based; details: in vivo
[8] = Clearance in mouse at 2.5 mg/kg, iv; format: ADME, organism-based; set-up: dose 2.5 mg/kg, route intravenous; details: in vivo
[9] = Volume of distribution at steady state in mouse at 2.5 mg/kg, iv; format: ADME, organism-based; set-up: dose 2.5 mg/kg, route intravenous; details: in vivo, read-out: Vdss
[10] = Dissociation constant, pKa of the compound at basic pH; format: physicochemical
[11] = Lipophilicity, log P of the compound; format: physicochemical; details: octanol/water

Structure (SMILES)	IC50 [1] [nM]	solubility thermodynamic at 24 h [2] [µg/mL]	IC50 [3] [nM]	also measured
CCCS(=O)(=O)Nc1ccc(F)c(NC(=O)Nc2cc(NC)ncn2)c1F	36	900 (≈ 2250 µM)	168	
CCCS(=O)(=O)Nc1ccc(F)c(NC(=O)Nc2cc(N)ncn2)c1F			438	
CCCS(=O)(=O)Nc1ccc(F)c(NC(=O)N(C)c2cc(N)ncn2)c1F			240	
CCCS(=O)(=O)Nc1ccc(F)c(NC(=O)Nc2ncnc3[nH]ncc23)c1F	5.6	7 (≈ 17 µM)	88	
CCCS(=O)(=O)Nc1ccc(F)c(NC(=O)c2csc3c(N)ncnc23)c1F	2.5	> 1000	15	Activity (Mus musculus): Non-toxic; AUC [4]: 874 µM·h; solubility thermodynamic at 24 h [5]: 5 µg/mL (≈ 11.7 µM); fraction unbound [6]: 0.016; bioavailability [7]: 100%; clearance [8]: 1 mL/min/kg; Vd [9]: 0.2 L/kg; pKa [10]: 3.6; logP [11]: 2.7
CCCS(=O)(=O)Nc1ccc(Cl)c(NC(=O)c2csc3c(N)ncnc23)c1F	0.9		19	
Nc1ncnc2c(C(=O)Nc3c(Cl)ccc(NS(=O)(=O)CCCF)c3F)cccc12	0.11		2.5	
